Reference: publication PMC8933034, “6-Amino-2,4,5-trimethylpyridin-3-ol and 2-amino-4,6-dimethylpyrimidin-5-ol derivatives as selective fibroblast growth factor receptor 4 inhibitors: design, synthesis, molecular docking, and anti-hepatocellular carcinoma efficacy evaluation” (Journal of Enzyme Inhibition and Medicinal Chemistry, 2022)
Values joined by “and” are separate entries in the source; they are usually repeats but may differ in a detail not shown here. Equal values may be shown once.

Legend:
[1] = system: Hep3B cells; assay: Cell proliferation assay (MTT), Hep3B; assay type: cell-based, human; details: for IC50: Homo sapiens, Hep3B, 48 h treatment, mean ± SEM of three independent experiments
Description: (§1) Human HCC cell lines, Hep3B and Huh7 were obtained from American Type Culture Collection (ATCC, Manassas, VA, USA). An H6c7 human normal pancreatic duct epithelial cell line was purchased from Kerafast (Boston, MA, USA). Hep3B and Huh7 cells were cultured in Dulbecco′s Modified Eagle′s Medium (DMEM) (Hyclone, Logan, UT, USA). The media were supplemented with 10% foetal bovine serum (FBS) (Gibco/ThermoFisher Scientific) and 1% penicillin/streptomycin (Gibco/ThermoFisher Scientific). H6c7 cells were maintained in a keratinocyte serum-free medium supplemented with a recombinant […] growth factor (rEGF) and bovine pituitary extract (Gibco/ThermoFisher Scientific). All the cells were incubated at 37 °C under a 5% CO2 atmosphere.
(§2) Cells were seeded at a density of 5000 cells/well in a 96-well plate. After overnight incubation, the cells were serum-starved using 1% FBS for 24 h. The next day, the cells were pre-treated with the different concentrations (0.1, 1, 3, 10, 30, 100 µM) of drugs for 1 h prior to the treatment with serum (10% FBS). After 48 h of incubation, 3–(4,5-dimethylthiazol-2-yl)-2,5-diphenyltetrazolium bromide (MTT) dye solution was added and incubated for 4 h. Next, DMSO was added, and after 30 min, the colour intensities were measured using a microplate reader (Versamax, Molecular Devices, Inc., USA) at 490 nm.

[2] = system: Hep3B-xenografted CAM tumour model; assay: CAM (chick chorioallantoic membrane) tumour model implanted with Hep3B cells; assay type: in vivo
Description: Fertile chicken eggs were purchased from Byeolbichon Farm (Gyeongbuk, South Korea) and incubated at 37 °C and under 55% relative humidity. On the 9th day of egg incubation (post-fertilization), false air sac was generated on the relatively flat side of eggs by a negative pressure technique. A small window (1 cm^2) was created on the false air sac surface of the eggs by separating the shell and membrane beneath (technique) using a grinding wheel (Dremel, Racine, WI, USA). Next, Hep3B cells were loaded at a density of 1.5 × 10^6 cells/CAM with or without compound. After four days of drug treatment, the tumour weight, number of vessel branch points within the tumour region were analysed.

[3] = system: Huh7 cells; assay: Cell proliferation assay (MTT), Huh7; assay type: cell-based, human; details: for IC50: Homo sapiens, Huh-7, 48 h treatment, mean ± SEM of three independent experiments; for difference of anti-proliferative activity between Hep3B and Huh7: Huh7 versus Hep3B, 48 h
Description: as §1, §2

[4] = Cytotoxicity assay (MTT), H6c7; assay type: cell-based; details: human, H6c7 normal pancreatic duct epithelial cells, 48 h treatment, mean ± SEM of three independent experiments, read-out: IC50 on cell viability (cytotoxicity), H6c7
Description: as §1
The cytotoxicity of the compounds was assessed by measuring the cell viability decrease using the MTT staining method. Briefly, H6c7 cells were seeded in a 96-well plate (Falcon, USA) at a density of 4 × 10^4 cells per well in keratinocyte serum-free medium. After 24 h, Cells were incubated with different concentrations (0.1, 1, 3, 10, 30, and 100) µM of each compound for 48 h, and the cell viability was measured using MTT assay. Optical density was measured at 540 nm using a microplate reader (BMG LABTECH).

[5] = molecular target: T1, human FGFR4 kinase (Homo sapiens, UniProt P22455); assay: FGFR4 kinase assay (Kinase HotSpot, Reaction Biology Corp.); assay type: biochemical; details: for inhibition at 1 µM: fixed concentration 1 μM, mean of two independent experiments; for inhibition at 0.01 µM: 0.01 μM concentration, two independent experiments
T1 construct: purchased Reaction Biology Corporation (Malvern, PA, USA), contract assay service
T1 sequence (P22455 22-802): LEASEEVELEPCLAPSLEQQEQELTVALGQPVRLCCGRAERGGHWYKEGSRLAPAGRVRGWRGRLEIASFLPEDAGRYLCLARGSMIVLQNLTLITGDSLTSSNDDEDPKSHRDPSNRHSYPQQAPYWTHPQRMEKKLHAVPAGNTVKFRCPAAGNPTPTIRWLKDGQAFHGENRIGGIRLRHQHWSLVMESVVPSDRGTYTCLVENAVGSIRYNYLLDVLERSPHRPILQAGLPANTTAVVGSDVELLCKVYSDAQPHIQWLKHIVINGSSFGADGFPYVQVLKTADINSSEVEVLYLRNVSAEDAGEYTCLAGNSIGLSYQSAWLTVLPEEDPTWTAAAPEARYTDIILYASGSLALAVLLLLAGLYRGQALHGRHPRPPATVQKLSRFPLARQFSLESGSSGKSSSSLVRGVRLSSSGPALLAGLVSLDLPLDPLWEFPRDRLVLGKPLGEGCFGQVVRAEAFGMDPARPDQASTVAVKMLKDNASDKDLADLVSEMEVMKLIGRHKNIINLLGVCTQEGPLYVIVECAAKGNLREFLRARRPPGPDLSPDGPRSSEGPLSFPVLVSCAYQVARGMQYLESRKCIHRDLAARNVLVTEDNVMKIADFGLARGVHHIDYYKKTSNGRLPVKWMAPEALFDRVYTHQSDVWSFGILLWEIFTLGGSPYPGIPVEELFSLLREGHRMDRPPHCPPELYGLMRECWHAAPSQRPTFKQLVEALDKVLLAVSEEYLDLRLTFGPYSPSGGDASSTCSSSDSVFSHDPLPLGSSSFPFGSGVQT
Description: A FGFR4 kinase assay was performed at the Reaction Biology Corporation (Malvern, PA, USA) using a Kinase HotSpotSM assay platform (www.reactionbiology.com, last accessed at 19/10/2020). Briefly, human FGFR4 kinase (5–10 mU), peptide substrate, and poly[Glu:Tyr] (4:1) 0.2 mg/ml were prepared in a reaction buffer with a final volume of 25 µL. The compounds were delivered into the reaction, followed ∼20 min. later by the addition of a mixture of ATP and [γ-^33P-ATP] (specific activity approx. 500 cpm/pmol, concentration as required) to a final concentration of 10 µM. After incubation for 40 min. at 25 °C, the reaction was stopped by the addition of a 3% phosphoric acid solution. Then, the reaction was spotted onto a P30 filtermat, and unbound phosphate was removed by washing 3 times for 5 min in 75 mM phosphoric acid and once in methanol prior to drying and scintillation counting. […] IC50 values and curve fits were obtained using GraphPad Prism 5 software.

[6] = molecular target: T2, FGFR2 (Homo sapiens, UniProt P21802); assay: FGFR2 ADP-glow kinase assay; assay type: biochemical
T2 construct: purchased Promega, WI, USA
T2 sequence (P21802 22-821): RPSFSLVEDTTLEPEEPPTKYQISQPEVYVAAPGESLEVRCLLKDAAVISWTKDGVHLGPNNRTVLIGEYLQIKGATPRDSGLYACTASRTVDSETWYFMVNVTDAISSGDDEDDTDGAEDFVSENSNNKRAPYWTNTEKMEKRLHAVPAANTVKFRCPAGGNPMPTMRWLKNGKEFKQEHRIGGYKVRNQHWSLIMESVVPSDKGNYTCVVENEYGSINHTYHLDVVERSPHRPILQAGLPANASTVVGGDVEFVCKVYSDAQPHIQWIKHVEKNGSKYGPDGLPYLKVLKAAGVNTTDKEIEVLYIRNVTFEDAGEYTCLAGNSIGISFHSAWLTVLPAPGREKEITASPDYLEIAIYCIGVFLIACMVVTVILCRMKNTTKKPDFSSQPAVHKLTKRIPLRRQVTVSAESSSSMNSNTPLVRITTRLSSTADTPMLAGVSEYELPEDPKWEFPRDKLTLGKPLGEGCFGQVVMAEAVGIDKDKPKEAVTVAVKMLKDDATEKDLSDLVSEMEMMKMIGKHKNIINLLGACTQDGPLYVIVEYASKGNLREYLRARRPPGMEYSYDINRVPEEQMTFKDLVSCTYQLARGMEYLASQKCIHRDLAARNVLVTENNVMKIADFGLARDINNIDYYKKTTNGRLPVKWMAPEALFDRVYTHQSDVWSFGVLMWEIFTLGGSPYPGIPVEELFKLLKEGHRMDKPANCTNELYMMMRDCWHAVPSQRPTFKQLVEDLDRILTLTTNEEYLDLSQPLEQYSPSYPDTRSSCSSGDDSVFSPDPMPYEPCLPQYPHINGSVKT
Description: (§3) FGFR1 ∼ 3 kinase assays were performed using the adenosine diphosphate (ADP)-glow kinase assay kit of FGFR1, FGFR2, and FGFR3 kinase enzyme systems (Promega, WI, USA) in accordance with the manufacturer’s instructions. […] The reaction was carried out at 25 °C for 1 h in a total volume of 25 µL. Subsequently, 25 µL of ADP-Glow reagent was added to the mixture, and then incubated for 40 min at 25 °C. After the addition of 50 µL of ADP detection reagents for 30 min at 25 °C, luminescence was measured using a Fluostar Omega microplate reader (BMG LABTECH GmbH, Ortenberg, Germany).

[7] = molecular target: T3, FGFR3 (Homo sapiens, UniProt P22607); assay: FGFR3 ADP-glow kinase assay; assay type: biochemical
T3 construct: purchased Promega, WI, USA
T3 sequence (P22607 23-806): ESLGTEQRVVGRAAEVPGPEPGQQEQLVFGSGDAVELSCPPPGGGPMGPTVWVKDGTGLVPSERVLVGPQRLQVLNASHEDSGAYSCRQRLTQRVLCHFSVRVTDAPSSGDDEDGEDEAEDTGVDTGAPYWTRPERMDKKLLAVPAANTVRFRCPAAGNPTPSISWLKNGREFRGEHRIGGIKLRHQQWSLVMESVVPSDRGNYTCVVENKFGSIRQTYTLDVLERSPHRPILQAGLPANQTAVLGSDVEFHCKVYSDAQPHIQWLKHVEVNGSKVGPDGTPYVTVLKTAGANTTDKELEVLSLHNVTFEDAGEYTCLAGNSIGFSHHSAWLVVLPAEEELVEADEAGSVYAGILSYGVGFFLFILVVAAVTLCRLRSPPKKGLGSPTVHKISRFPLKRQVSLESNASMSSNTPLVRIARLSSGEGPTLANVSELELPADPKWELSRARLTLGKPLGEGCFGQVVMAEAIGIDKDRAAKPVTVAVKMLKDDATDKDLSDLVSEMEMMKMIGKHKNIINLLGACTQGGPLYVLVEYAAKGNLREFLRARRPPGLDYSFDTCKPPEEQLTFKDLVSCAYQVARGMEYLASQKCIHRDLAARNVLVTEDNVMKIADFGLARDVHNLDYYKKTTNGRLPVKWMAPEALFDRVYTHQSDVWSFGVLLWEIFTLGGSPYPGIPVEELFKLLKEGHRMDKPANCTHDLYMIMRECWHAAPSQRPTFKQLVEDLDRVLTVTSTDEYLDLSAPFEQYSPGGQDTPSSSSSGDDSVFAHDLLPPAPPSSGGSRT
Description: as §3

[8] = molecular target: T4, FGFR1 (Homo sapiens, UniProt P11362); assay: FGFR1 ADP-glow kinase assay; assay type: biochemical
T4 construct: purchased Promega, WI, USA
T4 sequence (P11362 22-822): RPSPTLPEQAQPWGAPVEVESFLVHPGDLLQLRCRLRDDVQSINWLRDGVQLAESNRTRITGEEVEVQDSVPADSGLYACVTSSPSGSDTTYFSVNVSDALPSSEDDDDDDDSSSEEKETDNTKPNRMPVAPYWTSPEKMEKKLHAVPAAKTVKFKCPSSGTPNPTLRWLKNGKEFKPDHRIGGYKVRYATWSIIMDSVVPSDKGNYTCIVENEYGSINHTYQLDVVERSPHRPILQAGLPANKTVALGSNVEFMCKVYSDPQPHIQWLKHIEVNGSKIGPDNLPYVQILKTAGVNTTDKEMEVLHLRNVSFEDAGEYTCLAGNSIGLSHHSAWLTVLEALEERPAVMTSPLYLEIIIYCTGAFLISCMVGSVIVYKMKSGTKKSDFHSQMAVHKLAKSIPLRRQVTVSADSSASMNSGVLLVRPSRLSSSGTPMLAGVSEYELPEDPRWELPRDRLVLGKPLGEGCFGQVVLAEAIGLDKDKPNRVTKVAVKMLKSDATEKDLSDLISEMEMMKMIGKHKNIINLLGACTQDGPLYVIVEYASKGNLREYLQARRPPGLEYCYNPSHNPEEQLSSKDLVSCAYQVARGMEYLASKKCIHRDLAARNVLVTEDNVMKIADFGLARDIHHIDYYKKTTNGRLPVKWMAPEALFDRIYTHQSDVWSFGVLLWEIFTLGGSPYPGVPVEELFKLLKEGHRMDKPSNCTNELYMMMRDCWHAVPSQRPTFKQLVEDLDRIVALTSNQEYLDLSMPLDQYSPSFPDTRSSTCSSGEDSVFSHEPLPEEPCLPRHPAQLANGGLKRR
Description: as §3

With `C=CC(=O)Nc1cccc(C)c1Nc1ncc2cc(-c3c(Cl)c(OC)cc(OC)c3Cl)ccc2n1` [Compound 1, reference compound] the IC50 [1] was 900 ± 100 nM, the tumour growth ([2]; four days after Hep3B xenograft on CAM) was “dose-dependently inhibited” and the tumour-induced angiogenesis ([2]; number of new vessel branches on CAM, four days) was “significantly blocked”. For the same compound, the IC50 [3] was 7100 ± 5000 nM, the “difference of anti-proliferative activity between Hep3B and Huh7” value [3] was 7 fold and the IC50 at 48 h [4] was 13400 nM.
Compound `C=CC(=O)Nc1ccc(N2CCN(CC)CC2)cc1Nc1nc(C)c(OCc2c(F)c(OC)cc(OC)c2F)c(C)n1` [Compound 6AA] has an inhibition at 1 µM [5] of 10.3%.
In the case of `C=CC(=O)Nc1cn(C)nc1Nc1nc(C)c(OCc2c(F)c(OC)cc(OC)c2F)c(C)c1C` [Compound 6A], the “fold less potent than compound 1, Hep3B IC50” value ([1]; 48 h) is reported as 28 fold, the IC50 [1] is reported as 25200 nM and the IC50 ([5]; 7 different concentrations, three independent experiments) is reported as 190 nM. The inhibition at 1 µM [5] was 62.8%, the IC50 [3] was 21300 ± 6000 nM and the “difference of anti-proliferative activity between Hep3B and Huh7” value [3] was “did not show a significant difference”. For the same compound, the IC50 at 48 h [4] was over 100000 nM, the “Ratio against FGFR4 (FGFR2)” value ([6]; ratio of FGFR2 to FGFR4 inhibitory activity) was 6.0 and the IC50 ([6]; three independent experiments) was 1150 nM. The “Ratio against FGFR4 (FGFR3)” value ([7]; ratio of FGFR3 to FGFR4 inhibitory activity) was 1.5, the IC50 ([7]; three independent experiments) was 277 nM and the “Ratio against FGFR4 (FGFR1)” value ([8]; ratio of FGFR1 to FGFR4 inhibitory activity) was 8.2. For the same compound, the IC50 ([8]; three independent experiments) was 1560 nM and 1570 nM.
`C=CC(=O)Nc1ccc(N2CCN(CC)CC2)cc1Nc1nc(C)c(OCc2c(Cl)c(OC)cc(OC)c2Cl)c(C)n1` [Compound 6BB] showed an inhibition at 1 µM [5] of 5.4%.
With `C=CC(=O)Nc1cn(C)nc1Nc1nc(C)c(OCc2c(Cl)c(OC)cc(OC)c2Cl)c(C)c1C` [Compound 6B] the inhibition at 1 µM [5] was 16.9%.
Work on `C=CC(=O)Nc1cn(C)nc1Nc1nc(C)c(OCc2c(F)c(OC)cc(OC)c2F)c(C)n1` [Compound 6C] yielded an inhibition at 1 µM [5] of 22%.
For `C=CC(=O)Nc1cn(C)nc1Nc1nc(C)c(OCc2c(Cl)c(OC)cc(OC)c2Cl)c(C)n1` [Compound 6D], the inhibition at 1 µM [5] was 8%.
With `C=CC(=O)Nc1cccc(C)c1Nc1nc(C)c(OCc2c(F)c(OC)cc(OC)c2F)c(C)c1C` [Compound 6E] the inhibition at 0.01 µM [5] was 5% and the inhibition at 1 µM [5] was 7.2%.
With `C=CC(=O)Nc1cccc(C)c1Nc1nc(C)c(OCc2c(Cl)c(OC)cc(OC)c2Cl)c(C)c1C` [Compound 6F] the inhibition at 1 µM [5] was 5.4%.
Work on `C=CC(=O)Nc1cccc(C)c1Nc1nc(C)c(OCc2c(F)c(OC)cc(OC)c2F)c(C)n1` [Compound 6G] yielded an inhibition at 0.01 µM [5] of 3.3% and an inhibition at 1 µM [5] of 24.8%.
Work on `C=CC(=O)Nc1cccc(C)c1Nc1nc(C)c(OCc2c(Cl)c(OC)cc(OC)c2Cl)c(C)n1` [Compound 6H] yielded an inhibition at 1 µM [5] of 14%.
`C=CC(=O)Nc1ccc(Nc2nc(C)c(OCc3c(F)c(OC)cc(OC)c3F)c(C)c2C)c(C)c1` [Compound 6I] gave an inhibition at 1 µM [5] of 9.7%.
With `C=CC(=O)Nc1ccc(Nc2nc(C)c(OCc3c(Cl)c(OC)cc(OC)c3Cl)c(C)c2C)c(C)c1` [Compound 6J] the inhibition at 1 µM [5] was 5.9%.
For `C=CC(=O)Nc1ccc(Nc2nc(C)c(OCc3c(F)c(OC)cc(OC)c3F)c(C)n2)c(C)c1` [Compound 6K], the inhibition at 1 µM [5] was 4.9%.
`C=CC(=O)Nc1ccc(Nc2nc(C)c(OCc3c(Cl)c(OC)cc(OC)c3Cl)c(C)n2)c(C)c1` [Compound 6L] showed an inhibition at 1 µM [5] of 3.6%.
